Series [1] deals with HT-29 cells. Nature of the series: Cell growth inhibition assay (MTT). Format: cell-based, human. As to conditions: Homo sapiens, HT-29, 72 h after drug exposure. The method, then: (§1) The cell lines were obtained from ATTC (Manassas, VA, USA). HeLa (human cervix epithelioid carcinoma), MCF7 (human breast adenocarcinoma), HepG2 (human hepatocellular carcinoma), U87 MG (human glioblastoma), T98G (human glioblastoma), GL261 (murine glioma), LNCaP (human prostate cancer), PC-3 (human prostate cancer), and HEK-293 (human embryonic kidney) were grown in Dulbecco’s modified Eagle’s medium (DMEM, Gibco, Waltham, MA, USA), supplemented with 10% (v/v) heat-inactivated fetal bovine serum (HIFBS, Sigma-Aldrich, St. Louis, MO, USA)), 2 mM L-glutamine, 100 μg/mL streptomycin, and 100 units/mL penicillin (Gibco, Waltham, MA, USA) at 37 °C in saturated humidity atmosphere containing 95% air and 5% CO2. Cell line HT-29 (human colon carcinoma) was grown in Roswell Park Memorial Institute (RPMI) 1640 medium (Gibco, Whaltman, MA, USA) supplemented with 10% HIFBS, 100 μg/mL streptomycin, and 100 units/mL penicillin (Gibco, Whaltman, MA, USA) at 37 °C in humidified 95% air and 5% CO2 atmosphere. MycoAlert kit (Lonza, Norwest, Australia) was used to routinely check the presence of mycoplasma, and only mycoplasma-free cells were employed in the experiments.
(§2) Cells were plated in 96-well plates (100 µL/well) at the following concentrations: 30,000 cells/mL (HepG2, U87 MG, T98G, C6, LNCaP, PC3, and HT-29 cells) or 15,000 cells/mL (HeLa and MCF-7 cells). Previous experiments were performed to choose the optimal cell concentration (70–80% confluence) and avoid the formation of cell aggregates. Cells were incubated in complete DMEM or RPMI 1640 medium (see above) at 37 °C and 5% CO2 atmosphere for 24 h to allow for cell attachment to the plate. Then, every compound was added (10 µL/well) to a final concentration of 10 µM. Non-treated cells were used as negative controls. The antiproliferative activity of compounds was measured 72 h after the treatments using the MTT reagent (3-[4,5-dimethylthiazol-2-yl]-2,5-diphenyltetrazolium bromide), (MTT Thiazolyl Blue Tetrazolium Bromide, Sigma-Aldrich, St. Louis, MO, USA) dissolved in PBS at 5 mg/mL. Compounds showing antiproliferative effects at 10 µM were selected to determine their IC50 value. For that purpose, compounds were used at different concentrations ranging from 10^−10 to 10^−2 M. Measurements were performed in triplicate, and each experiment was repeated three times. The IC50 value was determined for every compound using Origin software (OriginLab, Washington, USA). To study the sensitivity to MDR efflux pumps of compounds, the IC50 values were determined by following the same procedure but in the presence of verapamil (final concentration of 10 µM).

Series [2] has as its system T98G cells. As to the kind of experiment: Cell growth inhibition assay (MTT). Format: cell-based, human. The following applies: Homo sapiens, T98G, 72 h after drug exposure. How it is done:
as §1, §2

Series [3] relates to HeLa cells. Nature of the series: Cell growth inhibition assay (MTT). Format: cell-based, human. The following applies: Homo sapiens, HeLa, 72 h after drug exposure. How it is done: as §1, §2
The subject of series [4] is MCF7 cells. Nature of the series: Cell growth inhibition assay (MTT). It is filed as cell-based, human. As to conditions: Homo sapiens, MCF7; MTT, 72 h after drug exposure. The method, then: as §1, §2
Series [5] deals with LNCaP cells. As to the kind of experiment: Cell growth inhibition assay (MTT). Format: cell-based, human. The following applies: Homo sapiens, LNCaP, 72 h after drug exposure. How it is done: as §1, §2
For series [6], the system named is HepG2 cells. Nature of the series: Cell growth inhibition assay (MTT). It is filed as cell-based, human. As to conditions: Homo sapiens, HepG2, 72 h after drug exposure. How it is done:
as §1, §2

The test system of series [7] is U87MG cells. Nature of the series: Cell growth inhibition assay (MTT). Format: cell-based, human. As to conditions: Homo sapiens, U-87 MG; MTT, 72 h after drug exposure. The method, then:
as §1, §2

In series [8] the test system is PC-3 cells. As to the kind of experiment: Cell growth inhibition assay (MTT). The following applies: Homo sapiens, PC-3, 72 h after drug exposure. It is filed as cell-based, human. How it is done:
as §1, §2

The subject of series [9] is bovine brain tubulin. As to the kind of experiment: Tubulin polymerization inhibition (turbidimetry). Format: biochemical. As to conditions: for IC50: concentration inhibiting 50% of microtubular protein polymerization in vitro, read-out: TPI IC50; for % TPI: compounds tested at 10 µM, with respect to the negative control; for Tubulin polymerization inhibition (in words): 10 µM. How it is done:
Microtubular protein was isolated from calf brain following the modified Shelanski method, based on temperature-dependent assembly/disassembly of tubulin [45]. The protein was stored at −80 °C, and its concentration was determined using the Bradford method before each use. Tubulin polymerization, which occurs when heating a buffered tubulin sample from 4 °C to 37 °C, is accompanied by an increase in the absorbance (at 450 nm) of the sample that was monitored by a Helios α spectrophotometer. […] Then, the temperature was adjusted to 4 °C, and the temperature being shifted to 37 °C allowed for the assembly process of tubulin. The turbidity caused by tubulin polymerization was measured by the increased absorbance at 450 nm. The increase in absorbance obtained for the control sample (without the ligand), which we considered to be 100% tubulin polymerization (0% inhibition), compared with the increase in absorbance determined for the sample containing ligands yielded the degree of tubulin polymerization inhibition (TPI), which is expressed as a percentage value. For the compounds displaying TPI values over 50% at 10 µM, the IC50 value for TPI was calculated. Measurements were performed in triplicate in two independent experiments using microtubular protein from different preparations.

The test system of series [10] is GL261 cells. As to the kind of experiment: Cell growth inhibition assay (MTT). Format: cell-based, murine. The following applies: Mus musculus, GL261, 72 h after drug exposure. How it is done:
as §1, §2

In series [11] the test system is HT-29 cells. Nature of the series: Cell growth inhibition (MTT) in the presence of 10 µM verapamil (sensitivity to MDR efflux pumps). The following applies: 10 µM verapamil (P-gp/MDR1 inhibitor). Format: cell-based, human. The method, then:
as §2

A short description of series [12]: Aqueous solubility, shake-flask method. It is filed as physicochemical. The following applies: pH 7.0 buffer, pH 7, aqueous buffer, thermodynamic from solid, shaking flask, buffered media at pH 7.0, mean of three. How it is done: The aqueous solubility of compounds was measured in a Helios Alfa Spectrophotometer. Calibration lines at the maximum wavelength of absorbance were determined for each compound. Then, following the shake-flask method, a suspension of 5 mg of each compound in 500 µL in pH 7.0 buffer was stirred for 72 h at room temperature. The mixture was then filtrated over a […] filter to remove the insoluble fraction. The concentration of the compound in the resulting saturated solution was determined via UV absorbance measurement and interpolation in the calibration line. The aqueous solubility values are given as the average of three independent measurements.

The subject of series [13] is tumor cell lines. Nature of the series: Cell growth inhibition assay (MTT), summary statements over several cell lines. It is filed as cell-based. As to conditions: read-out: antiproliferative IC50. How it is done:
as §2

Series [14] concerns HEK-293 cells. As to the kind of experiment: Cell growth inhibition assay (MTT), non-tumorigenic cells. It is filed as cell-based, human. As to conditions: Homo sapiens, HEK293, 72 h after drug exposure, non-tumorigenic cell line. The method, then: as §1, §2
Where [15] appears, read: the rest of the tumor cell lines (other than HeLa, HepG2, MCF7, U87MG).

Structures are written as SMILES. ≈ marks a conversion by molar mass, not a printed value. Read-outs that look alike come from different tables or passages of the source. Bounds are passed on as bounds.

Turning to `COc1ccc2nc(NCc3ccccn3)sc2c1` [Compound 1, 6-methoxy-N-(pyridin-2-ylmethyl)benzo[d]thiazol-2-amine], the IC50 in series [1] was 3510 nM; in series [2], 2400 nM; in series [3] it was 1780 nM; in series [4] it was 1530 nM; in series [5] it was 1520 nM; in [6] it was 2400 nM. Further, the IC50 in series [7] is 1610 nM; in [8], 2110 nM; in series [9] it was more than 10000 nM; in series [10], 2170 nM; in series [11] it was 3470 nM; in series [13] (HeLa, HepG2, MCF7, and U87MG) it was approximately 1000 nM. The IC50 in series [13] (setting [15]) was 2000 to 3000 nM; in series [14], more than 10000 nM. For the same compound, the concentration in solution in series [12] (solubility at 72 h) came to 48 µg/mL (≈ 177 µM).
Regarding `COc1ccc2nc(NCc3cccnc3)sc2c1` [Compound 2, 6-methoxy-N-(pyridin-3-ylmethyl)benzo[d]thiazol-2-amine], the IC50 was 2230 nM in series [1]; 2110 nM in [2]; 1270 nM in series [3]; 1170 nM in [4]; 1430 nM in series [5]; 1190 nM in [6]. Moreover, the IC50 in [7] is 1320 nM; in [8], 1550 nM; in series [9], more than 10000 nM; in [10], 1910 nM; in series [11] it was 2150 nM; in series [13] (HeLa, HepG2, MCF7, and U87MG) it was approximately 1000 nM. Moreover, the results for the IC50 in series [13] (setting [15]) and in series [14] were 2000 to 3000 nM and more than 10000 nM, respectively. For the same compound, the solubility at 72 h in series [12] stood at 57 µg/mL (≈ 210 µM).
Consider `COc1ccc2nc(N(Cc3cccnc3)C(C)=O)sc2c1` [Compound 20, N-(6-methoxybenzo[d]thiazol-2-yl)-N-(pyridin-3-ylmethyl)acetamide], for which the IC50 in series [1] is 1520 nM; in [2], 825 nM; in series [3], 1030 nM; in [4] it was 911 nM; in [5] it was 1390 nM; in series [6], 813 nM. The half-inhibitory concentration (IC50) amounted to 632 nM in [7]; 1620 nM in [8]; 8100 nM in [9]; 622 nM in series [10]; 1480 nM in [11]; 9900 nM in series [14]. In addition, in series [9], the “% TPI” value turned out to be 57%. The compound further gave a solubility at 72 h in series [12] of 93 µg/mL (≈ 297 µM).
Take `COc1ccc2nc(N(Cc3ccncc3)C(C)=O)sc2c1` [Compound 21, N-(6-methoxybenzo[d]thiazol-2-yl)-N-(pyridin-4-ylmethyl)acetamide]: the IC50 in series [1] was found to be 2230 nM; in [2] it was 2300 nM; in series [3] it was 1220 nM; in [4], 1970 nM; in series [5], 1810 nM; in series [6], 1490 nM. Moreover, the IC50 in series [7] is 1270 nM; in [8], 2630 nM; in series [9], more than 10000 nM; in series [10], 1590 nM; in [11], 2550 nM; in series [14] it was more than 10000 nM. Further, in series [9], the “% TPI” value is listed as 41%. In series [12], this compound showed a solubility at 72 h of 90 µg/mL (≈ 287 µM).
Consider `COc1ccc2nc(N(Cc3[nH]cnc3C)C(C)=O)sc2c1` [Compound 22, N-(6-methoxybenzo[d]thiazol-2-yl)-N-((4-methyl-1H-imidazol-5-yl)methyl)acetamide], for which the IC50 in series [1], in series [2], in [3], in series [4], in series [5] and in series [6] was more than 10000 nM throughout. Besides, the IC50 in series [7], in series [8], in [9], in series [10], in series [11] and in series [14] was more than 10000 nM throughout. Moreover, the “Tubulin polymerization inhibition (in words)” value in series [9] was “not able to inhibit tubulin polymerization”. Also, the “% TPI” value in series [9] came out at 0%. The solubility at 72 h in [12] was found to be 171 µg/mL (≈ 540 µM).
Take `COc1ccc2nc(N(Cc3ccccc3)C(C)=O)sc2c1` [Compound 23, N-benzyl-N-(6-methoxybenzo[d]thiazol-2-yl)acetamide]: the IC50 in series [1] was more than 10000 nM; in series [2], more than 10000 nM; in series [3], 3900 nM; in series [4], 6300 nM; in series [5], 4950 nM; in series [6], 4290 nM. The 50% inhibitory concentration (IC50) in series [7] was 7510 nM; in series [8], more than 10000 nM; in series [9], more than 10000 nM; in series [10], 6330 nM; in series [11], more than 10000 nM; in series [14], more than 10000 nM. Also, the “% TPI” value in series [9] came to 3%. This compound also gave a solubility at 72 h in [12] of 13 µg/mL (≈ 41.6 µM).
On to `COc1ccc2nc(N(Cc3ccc4ccccc4c3)C(C)=O)sc2c1` [Compound 24, N-(6-methoxybenzo[d]thiazol-2-yl)-N-(naphthalen-2-ylmethyl)acetamide], for which the IC50 in series [1], in [2], in [3], in [4], in [5] and in [6] was more than 10000 nM in each case. Besides, the half-inhibitory concentration (IC50) in [7], in series [8], in series [9], in series [10], in [11] and in [14] was more than 10000 nM each time. In series [9], the “Tubulin polymerization inhibition (in words)” value is reported as “not able to inhibit tubulin polymerization”. In addition, the “% TPI” value in series [9] amounted to 0%. The compound also gave a solubility at 72 h in series [12] of less than 9 µg/mL.
As for `Cn1nnc2c(C(N)=O)ncn2c1=O` [TMZ, temozolomide, reference compound], the IC50 is more than 10000 nM in series [1]; 241000 nM in [2]; more than 10000 nM in [3]; more than 10000 nM in series [4]; more than 10000 nM in series [5]; more than 10000 nM in series [6]. Besides, the half-inhibitory concentration (IC50) in series [7] is 135000 nM; in [8], more than 10000 nM; in series [10], 179000 nM; in series [11], more than 10000 nM; in series [13] (glioblastoma cell lines), more than 100000 nM; in series [14], more than 10000 nM.

The term IC50 denotes the point on the concentration scale where inhibition reaches its midpoint. The solubility is the dissolved amount per volume that the medium holds.
